Measured values from ChEMBL document CHEMBL4376882, “Photodynamic Therapy for ras-Driven Cancers: Targeting G-Quadruplex RNA Structures with Bifunctional Alkyl-Modified Porphyrins” (J Med Chem, 2020).
Active and inactive are the calls of the source. The rule behind the calls is not given here.

Key:
PANC-1 [1] = test: Induction of apoptosis in human PANC1 cells assessed as late apoptotic cells at 15 nM and photoirradiated at 7.2 J/cm2 measured after 6 to 24 hrs by annexin-V-propidium iodide staining based FACScalibur flow cytometry analysis (reference value: 2.7 %); type: functional
HEK293 = test: Cytotoxicity against human HEK293 cells assessed as reduction in metabolic activity after 24 to 72 hrs in dark followed by photoirradiation in presence of NADH by resazurin assay; type: ADME, cell-based
Quadruplex DNA [2] = test: Induction of ROS-mediated […] labeled Ras RNA g-quadruplex (unknown origin) degradation assessed as residual RNA g-quadruplex at 0.6 uM incubated for 15 to 30 mins followed by photoirradiation for 30 mins by PAGE analysis relative to control; type: nucleic-acid assay
Quadruplex DNA [3] = test: Binding affinity to human KRAS utr-z RNA g-quadruplex by fluorescence spectroscopy; type: nucleic-acid assay
[4] = Drug uptake in mouse NIH/3T3 cells at 5 uM and 4 degree C after 16 hrs by FACS analysis relative to 37 degree C; type: ADME, cell-based; conditions: nih3t3, 16 h
PANC-1 [5] = test: Cytotoxicity against human PANC1 cells assessed as reduction in metabolic activity at 20 nM after 24 to 72 hrs in dark followed by photoirradiation in presence of NADH and NAC by resazurin assay; type: functional, cell-based
[6] = target: GTPase NRas (Homo sapiens) (UniProt P01111); test: Inhibition of NRAS in human PANC1 cells assessed as downregulation of NRAS expression at 15 nM followed by 7.2 J/cm2 irradiation after 4 hrs by Western blot analysis (reference value: 25 %); type: cell-based
PANC-1 [7] = test: Induction of apoptosis in human PANC1 cells assessed as late apoptotic cells at 5 nM and photoirradiated at 7.2 J/cm2 measured after 6 to 24 hrs by annexin-V-propidium iodide staining based FACScalibur flow cytometry analysis (reference value: 2.7 %); type: functional
PANC-1 [8] = test: Induction of apoptosis in human PANC1 cells assessed as necrotic cells at 15 nM and photoirradiated at 7.2 J/cm2 measured after 6 to 24 hrs by annexin-V-propidium iodide staining based FACScalibur flow cytometry analysis (reference value: 0.7 %); type: functional
PANC-1 [9] = test: Induction of apoptosis in human PANC1 cells assessed as cleavage of PARP1 when photoirradiated at 7.2 J/cm2 by Western blot analysis; type: functional, cell-based
PANC-1 [10] = test: Induction of apoptosis in human PANC1 cells assessed as late apoptotic cells at 10 nM and photoirradiated at 7.2 J/cm2 measured after 6 to 24 hrs in presence of NAC by annexin-V-propidium iodide staining based FACScalibur flow cytometry analysis (reference value: 1.3 %); type: functional
MIA PaCa-2 = test: Cytotoxicity against human MIAPaCa2 cells harboring G12C point mutation assessed as reduction in metabolic activity after 48 hrs in dark followed by photoirradiation in presence of NADH by resazurin assay; type: functional, cell-based
PANC-1 [11] = test: Induction of apoptosis in human PANC1 cells assessed as late apoptotic cells at 10 nM and photoirradiated at 7.2 J/cm2 measured after 6 to 24 hrs by annexin-V-propidium iodide staining based FACScalibur flow cytometry analysis (reference value: 2.7 %); type: functional
[12] = target: GTPase NRas (Homo sapiens) (UniProt P01111); test: Inhibition of NRAS in human PANC1 cells assessed as downregulation of NRAS expression at 15 nM after 4 hrs by Western blot analysis; type: cell-based
[13] = Induction of ROS-mediated Cys5.5 labelled utr-c RNA duplex (unknown origin) degradation at 0.6 uM incubated for 30 mins followed by photoirradiation for 15 to 30 mins by PAGE analysis
PANC-1 [14] = test: Induction of apoptosis in human PANC1 cells assessed as early apoptotic cells at 10 nM and photoirradiated at 7.2 J/cm2 measured after 6 to 24 hrs by annexin-V-propidium iodide staining based FACScalibur flow cytometry analysis (reference value: 4.6 %); type: functional
[15] = Induction of ROS-mediated […] labelled 20-mer utr-c stem-loop RNA (unknown origin) degradation at 0.6 uM incubated for 30 mins followed by photoirradiation for 15 to 30 mins by PAGE analysis
[16] = Binding affinity to NRAS RNA g-quadruplex (unknown origin) at 40 degree C by SPR analysis; type: nucleic-acid assay
PANC-1 [17] = test: Induction of apoptosis in human PANC1 cells assessed as early apoptotic cells at 5 nM and photoirradiated at 7.2 J/cm2 measured after 6 to 24 hrs by annexin-V-propidium iodide staining based FACScalibur flow cytometry analysis (reference value: 4.6 %); type: functional
PANC-1 [18] = test: Induction of apoptosis in human PANC1 cells assessed as viable cells at 15 nM and photoirradiated at 7.2 J/cm2 measured after 6 to 24 hrs by annexin-V-propidium iodide staining based FACScalibur flow cytometry analysis (reference value: 91.9 %); type: functional; conditions: PANC-1, light or radiation study, read-out: Activity
PANC-1 [19] = test: Induction of apoptosis in human PANC1 cells assessed as necrotic cells at 5 nM and photoirradiated at 7.2 J/cm2 measured after 6 to 24 hrs by annexin-V-propidium iodide staining based FACScalibur flow cytometry analysis (reference value: 0.7 %); type: functional
Quadruplex DNA [20] = test: Binding affinity to human KRAS utr-z RNA g-quadruplex assessed as compound-RNA complex stoichiometry ratio of 6:1 by Job's plot analysis; type: nucleic-acid assay
[21] = Induction of ROS-mediated Cys5.5 labelled utr-z RNA duplex (unknown origin) degradation at 0.6 uM incubated for 30 mins followed by photoirradiation for 15 to 30 mins by PAGE analysis
PANC-1 [22] = test: Induction of apoptosis in human PANC1 cells assessed as necrotic cells at 5 nM and photoirradiated at 7.2 J/cm2 measured after 6 to 24 hrs in presence of NAC by annexin-V-propidium iodide staining based FACScalibur flow cytometry analysis (reference value: 1 %); type: functional
[23] = target: GTPase KRas (Homo sapiens) (UniProt P01116); test: Inhibition of KRAS in human PANC1 cells assessed as downregulation of KRAS expression at 15 nM followed by 7.2 J/cm2 irradiation after 4 hrs by Western blot analysis (reference value: 5 %); type: cell-based
[24] = Drug uptake in human PANC1 cells at 5 uM after 2 hrs by FACS analysis; type: ADME, cell-based; conditions: panc-1, 2 h
PANC-1 [25] = test: Induction of apoptosis in human PANC1 cells assessed as necrotic cells at 10 nM and photoirradiated at 7.2 J/cm2 measured after 6 to 24 hrs by annexin-V-propidium iodide staining based FACScalibur flow cytometry analysis (reference value: 0.7 %); type: functional
[26] = Drug uptake in human PANC1 cells at 5 uM and 4 degree C after 16 hrs by FACS analysis relative to 37 degree C; type: ADME, cell-based; conditions: panc-1, 16 h
[27] = Induction of ROS-mediated […] labelled 20-mer utr-z stem-loop RNA (unknown origin) degradation at 0.6 uM incubated for 30 mins followed by photoirradiation for 15 to 30 mins by PAGE analysis
Quadruplex DNA [28] = test: Binding affinity to human KRAS utr-c RNA g-quadruplex by fluorescence spectroscopy; type: nucleic-acid assay
Quadruplex DNA [29] = test: Binding affinity to human KRAS utr-z RNA g-quadruplex at 40 degree C by SPR analysis; type: nucleic-acid assay

GTPase NRas (Homo sapiens), sequence (P01111 whole entry): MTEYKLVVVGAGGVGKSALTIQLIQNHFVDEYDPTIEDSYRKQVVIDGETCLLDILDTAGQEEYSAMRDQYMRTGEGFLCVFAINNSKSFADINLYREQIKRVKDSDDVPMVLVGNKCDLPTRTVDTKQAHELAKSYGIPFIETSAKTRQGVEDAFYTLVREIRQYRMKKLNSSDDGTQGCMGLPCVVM
GTPase KRas (Homo sapiens), sequence (P01116 whole entry, looked up): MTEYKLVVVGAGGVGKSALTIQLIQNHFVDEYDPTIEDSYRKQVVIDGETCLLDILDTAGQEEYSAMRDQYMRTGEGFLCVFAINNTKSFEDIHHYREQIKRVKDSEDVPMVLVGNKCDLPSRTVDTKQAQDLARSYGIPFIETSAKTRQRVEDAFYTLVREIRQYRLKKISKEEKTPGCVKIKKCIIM

In the case of `CCCCCCCCCCCCCC[n+]1ccc(-c2c3nc(c(-c4cc[n+](C)cc4)c4ccc([nH]4)c(-c4cc[n+](C)cc4)c4nc(c(-c5cc[n+](C)cc5)c5ccc2[nH]5)C=C4)C=C3)cc1.[I-].[I-].[I-].[I-]`, the Activity (PANC-1 [1]) is reported as 20.8%, the Activity (HEK293) is reported as “Non-Toxic” and the Activity (Quadruplex DNA [2]) is reported as 30%. For the same compound, the Kd (Quadruplex DNA [3]) was 219 nM, the Drug uptake [4] was “Active” and the Activity (PANC-1 [5]) was “inactive”. For the same compound, the inhibition [6] was 50%, the Activity (PANC-1 [7]) was 6.1% and the Activity (PANC-1 [8]) was 4.1%. For the same compound, the Activity (PANC-1 [9]) was “Active”, the Activity (PANC-1 [10]) was 3.1% and the Activity (MIA PaCa-2) was “Active”. The Activity (PANC-1 [11]) was 10.9%, the inhibition [12] was “inactive” and the Activity [13] was “inactive”. For the same compound, the Activity (PANC-1 [14]) was 4.8%, the Activity [15] was “inactive” and the Kd [16] was 56 to 98 nM. For the same compound, the Activity (PANC-1 [17]) was 5.1%, the viability at 0.015 µM (PANC-1 [18]) was 70.6% and the Activity (PANC-1 [19]) was 0.6%. The Activity (Quadruplex DNA [20]) was “Active”, the Activity [21] was “inactive” and the Activity (PANC-1 [22]) was 1.2%. For the same compound, the inhibition [23] was 20%, the Drug uptake [24] was “Active” and the Activity (PANC-1 [25]) was 2.2%. The Drug uptake [26] was 24%, the Activity [27] was “inactive” and the Kd (Quadruplex DNA [28]) was 235 nM. For the same compound, the Kd (Quadruplex DNA [29]) was 82 to 202 nM.
